# In patent US9221832B2, “Heterocyclic amide derivatives as P2X7 receptor antagonists” (ACTELION PHARMACEUTICALS LTD., priority 2011, dated 2015):
# Biological target: human recombinant P2X7 receptor (Homo sapiens (Human), UniProt Q99572)
# Test: YO-PRO assay: P2X7 receptor antagonistic activity
# Type: cell-based
# Conditions: HEK cells expressing human P2X7
# Method: The P2X7 receptor antagonistic activity of the compounds of formula (I) is determined in accordance with the following experimental method.
# Cell Line Generation and YO-PRO Assay
# Cell line generation was performed in general according to established molecular cloning protocols. Specifically, RNA was extracted from human whole blood using the Qiagen RNeasy kit (Qiagen, CH) according to the manufacturer's instructions. Subsequently cDNA was made (Superscript II, Invitrogen AG, CH) and the human P2X7 gene (genbank ref. BC011913) was amplified with the following primers: […] and […]. The amplified sequence was subsequently ligated into a pcDNA3.1 (+) NotI, NheI digested plasmid. […] Following a 24 h exposure to DNA, cells were trypsinized and re-seeded at low density in the presence of 250 μg Geneticin. Geneticin resistant cells were then selected during two consecutive rounds of cloning by serial limiting dilution with visual inspection. Individual clones were screened for P2X7 expression by applying ATP and recording the resultant uptake of YO-PRO1. Specific cell clones were chosen based on RNA and protein expression. HEK cells stably expressing P2X7 were used to screen drugs using the YO-PRO1 assay. Cells were grown to confluency in adherent culture at 37° C. in a humidified 5% CO2 incubator (split 1/5 every 3-4 days with DMEM, 10% FCS, 1% Penicillin/Streptomycin, 250 μg/ml Geneticin). Adherent cells were detached by incubation with Trypsine (1 ml per 165 cm^2 dish) for 2 minutes, then washed off with 10 ml PBS (without Mg^2+ and Ca^2+), and resuspended in DMEM, 10% FCS, 1% Penicillin/Streptomycin, no Geneticin. […] During this time period, four time points were taken. Each time point comprised the average of several measurements made within a few seconds. […] The FLIPR tetra was equipped with Molecular Devices Screen Works system control software to define and run experimental protocols. […] For IC50 measurements the maximum intensity is plotted against the concentration of compound to determine IC50 values.
# Chain of human recombinant P2X7 receptor (Q99572 whole entry): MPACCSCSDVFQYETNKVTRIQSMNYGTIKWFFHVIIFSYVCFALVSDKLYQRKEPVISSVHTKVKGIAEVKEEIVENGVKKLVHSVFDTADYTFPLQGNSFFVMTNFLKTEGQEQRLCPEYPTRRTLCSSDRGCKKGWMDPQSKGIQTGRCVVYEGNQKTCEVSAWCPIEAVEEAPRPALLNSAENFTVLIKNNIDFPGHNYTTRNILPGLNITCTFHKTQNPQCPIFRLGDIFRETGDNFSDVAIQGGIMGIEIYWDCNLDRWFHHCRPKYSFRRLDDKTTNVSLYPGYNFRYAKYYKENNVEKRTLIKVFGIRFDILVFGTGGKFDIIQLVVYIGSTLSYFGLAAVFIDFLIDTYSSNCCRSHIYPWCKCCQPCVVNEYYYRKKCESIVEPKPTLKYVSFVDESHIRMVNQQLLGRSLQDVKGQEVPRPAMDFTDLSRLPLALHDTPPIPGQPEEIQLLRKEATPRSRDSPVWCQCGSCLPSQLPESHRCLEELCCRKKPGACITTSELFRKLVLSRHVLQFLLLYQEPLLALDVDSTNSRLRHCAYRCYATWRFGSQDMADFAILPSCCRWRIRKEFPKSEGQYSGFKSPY
row,SMILES,IC50 [nM]
1,"O=C(CCCc1ccc(F)cc1)NC1COc2ncccc21 (racemic) [Example 82, rac-N-(2,3-Dihydro-furo[2,3-b]pyridin-3-yl)-4-(4-fluoro-phenyl)-butyramide]",2030
2,"O=C(Cc1cccc(C(F)(F)F)c1Cl)NC1COc2cnccc21 (racemic) [Example 87, rac-2-(2-Chloro-3-trifluoromethyl-phenyl)-N-(2,3-dihydro-furo[2,3-c]pyridin-3-yl)-acetamide]",4.6
3,"O=C(Cc1ccc(C(F)(F)F)cc1Cl)NC1COc2ncccc21 (racemic) [Example 88, rac-2-(2-Chloro-4-trifluoromethyl-phenyl)-N-(2,3-dihydro-furo[2,3-b]pyridin-3-yl)-acetamide]",72
4,"Cc1cc(Cl)cc(Cl)c1CC(=O)NC1COc2cnccc21 (racemic) [Example 89, rac-2-(2,4-Dichloro-6-methyl-phenyl)-N-(2,3-dihydro-furo[2,3-c]pyridin-3-yl)-acetamide]",3.2
5,"O=C(Cc1cccc(C(F)(F)F)c1F)NC1COc2ncccc21 (racemic) [Example 90, rac-N-(2,3-Dihydro-furo[2,3-b]pyridin-3-yl)-2-(2-fluoro-3-trifluoromethyl-phenyl)-acetamide]",92
6,"N#Cc1ccc(CC(=O)NC2COc3ncccc32)c(Cl)c1 (racemic) [Example 96, rac-2-(2-Chloro-4-cyano-phenyl)-N-(2,3-dihydro-furo[2,3-b]pyridin-3-yl)-acetamide]",123
7,"O=C(Cc1cccc(Cl)c1C(F)(F)F)NC1COc2ncccc21 (racemic) [Example 97, rac-2-(3-Chloro-2-trifluoromethyl-phenyl)-N-(2,3-dihydro-furo[2,3-b]pyridin-3-yl)-acetamide]",15
8,"Cc1nccc2c1OCC2NC(=O)Cc1ccc(Cl)cc1Cl (racemic) [Example 100, rac-2-(2,4-Dichloro-phenyl)-N-(7-methyl-2,3-dihydro-furo[2,3-c]pyridin-3-yl)-acetamide]",52
9,"O=C(Cc1c(Cl)cc(Cl)cc1CO)NC1COc2ncccc21 (racemic) [Example 103, rac-2-(2,4-Dichloro-6-hydroxymethyl-phenyl)-N-(2,3-dihydro-furo[2,3-b]pyridin-3-yl)-acetamide]",16
10,"O=C(Cc1cccc(OC(F)(F)F)c1Cl)NC1COc2ncccc21 (racemic) [Example 108, rac-2-(2-Chloro-3-trifluoromethoxy-phenyl)-N-(2,3-dihydro-furo[2,3-b]pyridin-3-yl)-acetamide]",71
11,"Cc1cc(Cl)cc(Cl)c1CC(=O)NC1COc2nnccc21 (racemic) [Example 110, rac-2-(2,4-Dichloro-6-methyl-phenyl)-N-(5,6-dihydro-furo[2,3-c]pyridazin-5-yl)-acetamide]",6.7
12,"CC(=O)c1cccc(CC(=O)NC2COc3ncccc32)c1Cl (racemic) [Example 111, rac-2-(3-Acetyl-2-chloro-phenyl)-N-(2,3-dihydro-furo[2,3-b]pyridin-3-yl)-acetamide]",416
13,"N#Cc1c(Cl)ccc(CC(=O)NC2COc3ncccc32)c1Cl (racemic) [Example 112, rac-2-(2,4-Dichloro-3-cyano-phenyl)-N-(2,3-dihydro-furo[2,3-b]pyridin-3-yl)-acetamide]",219
14,"O=C(Cc1ccc(Cl)cc1Cl)NC1COc2cnc(Cl)cc21 (racemic) [Example 116, rac-N-(5-Chloro-2,3-dihydro-furo[2,3-c]pyridin-3-yl)-2-(2,4-dichloro-phenyl)-acetamide]",350
15,"O=C(Cc1cccc(C(F)(F)F)c1Cl)NC1COc2c1ccc[n+]2[O-] (racemic) [Example 129, rac-2-(2-Chloro-3-trifluoromethyl-phenyl)-N-(7-oxy-2,3-dihydro-furo[2,3-b]pyridin-3-yl)-acetamide]",123
16,"Cc1cc(Cl)cc(Cl)c1CC(=O)NC1COc2cncc(C)c21 (racemic) [Example 131, rac-2-(2,4-Dichloro-6-methyl-phenyl)-N-(4-methyl-2,3-dihydro-furo[2,3-c]pyridin-3-yl)-acetamide]",14
17,"Cc1ccc2c(n1)OCC2NC(=O)Cc1c(C)cc(Cl)cc1Cl (racemic) [Example 133, rac-2-(2,4-Dichloro-6-methyl-phenyl)-N-(6-methyl-2,3-dihydro-furo[2,3-b]pyridin-3-yl)-acetamide]",43
18,"Cc1ccc2c(n1)OCC2NC(=O)Cc1cccc(C(F)(F)F)c1Cl (racemic) [Example 134, rac-2-(2-Chloro-3-trifluoromethyl-phenyl)-N-(6-methyl-2,3-dihydro-furo[2,3-b]pyridin-3-yl)-acetamide]",21
19,"COc1cc(C)nc2c1C(NC(=O)Cc1cccc(C(F)(F)F)c1Cl)CO2 (racemic) [Example 135, rac-2-(2-Chloro-3-trifluoromethyl-phenyl)-N-(4-methoxy-6-methyl-2,3-dihydro-furo[2,3-b]pyridin-3-yl)-acetamide]",> 4780
20,"Cc1ccnc2c1C(NC(=O)Cc1cccc(C(F)(F)F)c1Cl)CO2 (racemic) [Example 137, rac-2-(2-Chloro-3-trifluoromethyl-phenyl)-N-(4-methyl-2,3-dihydro-furo[2,3-b]pyridin-3-yl)-acetamide]",37
21,"Cc1cc(Cl)cc(Cl)c1CC(=O)NC1COc2nccc(C)c21 (racemic) [Example 138, rac-2-(2,4-Dichloro-6-methyl-phenyl)-N-(4-methyl-2,3-dihydro-furo[2,3-b]pyridin-3-yl)-acetamide]",99
22,"O=C(COc1ccc(Cl)cc1Cl)NC1COc2ncccc21 (racemic) [Example 140, rac-2-(2,4-Dichloro-phenoxy)-N-(2,3-dihydro-furo[2,3-b]pyridin-3-yl)-acetamide]",> 8410

# The next lines start with the values.
row,IC50 [nM],SMILES
1,1240,"NC(=O)c1cccc(CC(=O)NC2COc3ncccc32)c1Cl (racemic) [Example 80, rac-2-Chloro-3-[(2,3-dihydro-furo[2,3-b]pyridin-3-ylcarbamoyl)-methyl]-benzamide]"
2,71,"O=C(Cc1ccc(Cl)cc1Cl)NC1COc2c1ccnc2C1CC1 (racemic) [Example 104, rac-N-(7-Cyclopropyl-2,3-dihydro-furo[2,3-c]pyridin-3-yl)-2-(2,4-dichloro-phenyl)-acetamide]"
3,248,"COc1nccc2c1OCC2NC(=O)Cc1ccc(Cl)cc1Cl (racemic) [Example 105, rac-2-(2,4-Dichloro-phenyl)-N-(7-methoxy-2,3-dihydro-furo[2,3-c]pyridin-3-yl)-acetamide]"
4,52,"O=C(Cc1ccc(Cl)cc1Cl)NC1COc2c1ccnc2Cl (racemic) [Example 106, rac-N-(7-Chloro-2,3-dihydro-furo[2,3-c]pyridin-3-yl)-2-(2,4-dichloro-phenyl)-acetamide]"
5,31,"N#Cc1c(F)ccc(CC(=O)NC2COc3ncccc32)c1Cl (racemic) [Example 107, rac-2-(2-Chloro-3-cyano-4-fluoro-phenyl)-N-(2,3-dihydro-furo[2,3-b]pyridin-3-yl)-acetamide]"
6,28,"N#Cc1cccc(CC(=O)NC2COc3ncccc32)c1C(F)(F)F (racemic) [Example 113, rac-2-(3-Cyano-2-trifluoromethyl-phenyl)-N-(2,3-dihydro-furo[2,3-b]pyridin-3-yl)-acetamide]"
7,7.6,"O=C(Cc1cccc(C(F)F)c1Cl)NC1COc2ncccc21 (racemic) [Example 114, rac-2-(2-Chloro-3-difluoromethyl-phenyl)-N-(2,3-dihydro-furo[2,3-b]pyridin-3-yl)-acetamide]"
8,81,"O=C(Cc1cccc(C(F)(F)F)c1Cl)NC1COc2cnc(Cl)cc21 (racemic) [Example 115, rac-N-(5-Chloro-2,3-dihydro-furo[2,3-c]pyridin-3-yl)-2-(2-chloro-3-trifluoromethyl-phenyl)-acetamide]"
9,5.6,"Cc1cncc2c1C(NC(=O)Cc1cccc(C(F)(F)F)c1Cl)CO2 (racemic) [Example 128, rac-2-(2-Chloro-3-trifluoromethyl-phenyl)-N-(4-methyl-2,3-dihydro-furo[2,3-c]pyridin-3-yl)-acetamide]"
10,506,"O=C(Cc1cccc(C(F)(F)F)c1Cl)NC1COc2cncc(C3CC3)c21 (racemic) [Example 132, rac-2-(2-Chloro-3-trifluoromethyl-phenyl)-N-(4-cyclopropyl-2,3-dihydro-furo[2,3-c]pyridin-3-yl)-acetamide]"
11,> 10000,"CCOc1cc(C)nc2c1C(NC(=O)Cc1cccc(C(F)(F)F)c1Cl)CO2 (racemic) [Example 136, rac-2-(2-Chloro-3-trifluoromethyl-phenyl)-N-(4-ethoxy-6-methyl-2,3-dihydro-furo[2,3-b]pyridin-3-yl)-acetamide]"
12,272,"COc1ccnc2c1C(NC(=O)Cc1cccc(C(F)(F)F)c1Cl)CO2 (racemic) [Example 139, rac-2-(2-Chloro-3-trifluoromethyl-phenyl)-N-(4-methoxy-2,3-dihydro-furo[2,3-b]pyridin-3-yl)-acetamide]"
